From BindingDB's records for doi:10.1038/304065a0 (Hoechst Pharmaceutical Research Laboratories, 1983)

Target: Histamine H2 receptor (Cavia porcellus, UniProt P47747)
Sequence (P47747 whole entry): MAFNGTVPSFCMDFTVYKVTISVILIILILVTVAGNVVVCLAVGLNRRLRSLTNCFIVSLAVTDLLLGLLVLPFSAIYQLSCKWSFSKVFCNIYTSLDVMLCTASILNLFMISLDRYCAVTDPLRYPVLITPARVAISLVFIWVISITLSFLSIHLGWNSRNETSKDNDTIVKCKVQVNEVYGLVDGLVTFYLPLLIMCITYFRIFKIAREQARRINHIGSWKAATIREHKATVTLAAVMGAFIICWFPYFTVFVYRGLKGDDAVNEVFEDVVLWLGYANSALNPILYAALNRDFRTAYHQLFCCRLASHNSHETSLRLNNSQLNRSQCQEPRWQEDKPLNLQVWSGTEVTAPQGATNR

SMILES	Ki
NC(N)=Nc1nc(CSCCC(N)=NS(N)(=O)=O)cs1	12 nM
CN/C([CH-][N+](=O)[O-])=[NH+]\CCSCc1ccc(CN(C)C)o1	390 nM
CNC(=S)NCCCc1cnc[nH]1	> 10000 nM
CNC(=S)NCCCCc1cnc[nH]1 [1-[4-(1H-imidazol-5-yl)butyl]-3-methylthiourea]	3000 nM
Cc1nc[nH]c1CCN [2-(5-methyl-1H-imidazol-4-yl)ethan-1-amine]	> 10000 nM
Cc1[nH]cnc1CSCCNC(=N)NCCCc1c[nH]cn1 [2-[3-(1H-imidazol-5-yl)propyl]-1-(2-{[(5-methyl-1H-imidazol-4-yl)methyl]sulfanyl}ethyl)guanidine]	63 nM
C/N=C(\S)NCCSCc1[nH]cnc1C [CAS_34839-70-8]	510 nM
CN(C)CCCSC(=N)N [[3-(carbamimidoylsulfanyl)propyl]dimethylamine]	> 10000 nM
